Data: US20250073249A1, “STEROID COMPOUND, AND PREPARATION METHOD THEREFOR AND USE THEREOF” (SHANGHAI INSTITUTE OF MATERIA MEDICA, CHINESE ACADEMY OF …, priority 2022, published 2025)

Experiments:
[1] = test system: 22RV1 prostate cancer cells; experiment: Anti-proliferative activity against resistant 22RV1 cells expressing AR-V7; format: cell-based; conditions: Homo sapiens; 22RV1 cells expressing AR-V7 splice variant; read-out: Antiproliferative activity IC50
Protocol: (§1) The cells were then digested with trypsin and counted using an automated cell counter to determine cell density. The cell suspension was diluted to the desired density in growth medium. Subsequently, 100 μL of the cell suspension was seeded into 96-well plates and incubated at 37° C. with 5% CO2 for 24 hours. 10 μL of drug solution (including 3-fold serial dilutions of compounds or DMSO) was added to each well, and the plates were incubated at 37° C. with 5% CO2 for 6 days. Prior to measurement, the assay plates were equilibrated to room temperature. 40 μL of CellTiter-Glo® reagent was added to each well. The plates were mixed on an orbital shaker for 2 minutes to induce cell lysis. After incubation at room temperature for 60 minutes to stabilize the luminescence signal, the plates were read on an Envision plate reader.
The experimental procedure was essentially the same as that for LNCaP cells.

[2] = test system: LNCaP cells; experiment: In vitro LNCaP cell proliferation inhibition test (CellTiter-Glo); format: cell-based; conditions: for Maximum Inhibition (%) / IC50: 6 days; for IC50: Homo sapiens, read-out: Anti-proliferative activity IC50; for Anti-proliferative activity, fold improvement compared to abiraterone: ratio to abiraterone IC50
Protocol: as §1

[3] = test system: androgen-dependent organs; experiment: Hershberger assay, in vivo anti-androgenic activity; parameters: species or system Sprague-Dawley rats; conditions: castrated male rats, 0.4 mg/kg testosterone propionate, 20 mg/kg QD oral, 10 days
Protocol: The Hershberger assay was used to detect the in vivo anti-androgenic signal transduction activity of the compounds of the present invention. In this assay, compounds of the present invention (14, 33 and 37) were administered to prepubertal castrated male Sprague-Dawley rats in the presence of 0.4 mg/kg testosterone propionate (TP), and the weights of androgen-dependent organs were measured. Dosing continued for 10 days, and measurements were made 24 hours after the last dose. The degree of AR antagonism and subsequent organ growth inhibition was evaluated by comparison with castrated controls. The test compounds were orally administered at 20 mg/kg QD and the endpoint evaluation was performed by measuring the weight changes of 2 androgen-sensitive organs (ASO): seminal vesicles with coagulating glands (SVCG) and ventral prostate (VP). Enzalutamide (ENZ) was used as a positive control.

[4] = biological target: T1, AR(W741L) (Homo sapiens, UniProt P10275, W742L); experiment: Mutant AR antagonistic activity test, W741L (reporter gene in HEK293 cells); format: cell-based; conditions: for IC50: HEK293 cells, DHT 10 nM, 24 hours, read-out: W741L IC50(nM) 1st gen AR antagonist resistant mutation
T1 construct: expressed in transfected cells; host or cells: HEK293
T1 sequence (P10275 1-920 W742L): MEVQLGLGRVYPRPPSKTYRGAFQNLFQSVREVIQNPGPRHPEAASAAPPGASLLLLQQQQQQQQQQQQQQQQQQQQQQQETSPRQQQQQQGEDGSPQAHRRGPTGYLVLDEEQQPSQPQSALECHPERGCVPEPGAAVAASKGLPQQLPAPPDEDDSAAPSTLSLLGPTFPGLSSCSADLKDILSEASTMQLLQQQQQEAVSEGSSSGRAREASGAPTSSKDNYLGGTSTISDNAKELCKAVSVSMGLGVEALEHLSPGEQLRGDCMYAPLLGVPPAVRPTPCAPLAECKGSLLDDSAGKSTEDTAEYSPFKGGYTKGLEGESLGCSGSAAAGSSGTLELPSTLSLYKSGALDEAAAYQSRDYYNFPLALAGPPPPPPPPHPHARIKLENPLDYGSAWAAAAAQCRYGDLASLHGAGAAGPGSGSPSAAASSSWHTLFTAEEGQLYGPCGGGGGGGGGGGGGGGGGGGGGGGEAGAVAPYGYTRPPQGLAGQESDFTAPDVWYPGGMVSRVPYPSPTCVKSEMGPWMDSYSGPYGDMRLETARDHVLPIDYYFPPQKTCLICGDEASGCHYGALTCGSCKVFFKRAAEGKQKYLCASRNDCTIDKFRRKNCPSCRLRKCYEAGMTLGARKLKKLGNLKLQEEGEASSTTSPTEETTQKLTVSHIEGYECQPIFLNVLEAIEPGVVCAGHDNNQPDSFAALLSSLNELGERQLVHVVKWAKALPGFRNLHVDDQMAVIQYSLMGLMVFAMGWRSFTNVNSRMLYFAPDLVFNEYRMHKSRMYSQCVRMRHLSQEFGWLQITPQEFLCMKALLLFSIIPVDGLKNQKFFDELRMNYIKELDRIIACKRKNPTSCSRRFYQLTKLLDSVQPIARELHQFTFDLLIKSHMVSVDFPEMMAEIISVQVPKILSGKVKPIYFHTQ
Protocol: HEK293 cells were cultured in DMEM supplemented with 10% FBS and 1% GlutaMax at 37° C. with 5% CO2. The day before transfection, the medium was changed to DMEM containing 10% charcoal-stripped FBS and 1% GlutaMax. […] The cell suspension was diluted with cell seeding solution, and the transfection reagent was added to achieve 500,000 cells/mL. Subsequently, 90 μL of cell suspension was seeded into each well of the assay plate. The next day, compounds were prepared: starting from 8 mM, 3-fold serial dilutions were performed in DMSO for a total of 8 points, then 500 nL was transferred to the compound plate using Echo. The compounds were then diluted with 40 μL of medium to 10× final concentration, and 10 μL was transferred to the cell plate and incubated at 37° C. for 30 minutes. Subsequently, 10 nL of DHT at a final concentration of 10 nM was transferred to each well of the assay plate using TECAN. After 24 hours of incubation, 100 μL of Steady-Glo was added to the assay plate and read on an Envision reader. Data were determined and analyzed using GraphPad Prism.

| Compound | IC50 [1] [nM] | Maximum Inhibition (%) [2] [%] | IC50 [2] [nM] | Anti-proliferative activity, fold improvement compared to abiraterone [2] [fold] | Growth of androgen-dependent organs (SVCG and VP weight) compared to the castration group [3] | In vivo anti-androgenic activity compared with enzalutamide [3] | IC50 [4] [nM] | Anti-tumor activity and efficacy compared to enzalutamide ([2]; in words) | W741L antagonistic activity, fold improvement compared to enzalutamide ([4]; ratio to enzalutamide IC50) [fold] |
| --- | --- | --- | --- | --- | --- | --- | --- | --- | --- |
| Cc1cn(C2=CCC3C4CC=C5C[C@@H](NC(=O)c6ccc(F)cc6F)CC[C@]5(C)C4CC[C@]23C)cn1 (stereo partly drawn) [Compound 37, N-((3S,10R,13S)-17-(4-methyl-1H-imidazol-1-yl)-10,13-dimethyl-2,3,4,7,8,9,10,11,12,13,14,15-dodecahydro-1H-cyclopenta[a]phenanthren-3-yl)-2,4-difluorobenzamide] | 452 | 95.85 | 327 | 8.6 | significantly inhibited the growth of androgen-dependent organs | activity comparable to enzalutamide | 413 |  |  |
| Cc1cn(C2=CCC3C4CC=C5C[C@@H](NC(=O)c6ccc(F)cc6)CC[C@]5(C)C4CC[C@]23C)cn1 (stereo partly drawn) [Compound 33, N-((3S,10R,13S)-17-(4-methyl-1H-imidazol-1-yl)-10,13-dimethyl-2,3,4,7,8,9,10,11,12,13,14,15-dodecahydro-1H-cyclopenta[a]phenanthren-3-yl)-4-fluorobenzamide] | 624 | 102.9 | 478 |  | significantly inhibited the growth of androgen-dependent organs | activity comparable to enzalutamide | 371 | comparable anti-tumor activity but significantly superior anti-tumor efficacy compared to enzalutamide |  |
| Cc1cn(C2=CCC3C4CC=C5C[C@@H](NC(=O)c6ccc(S(C)(=O)=O)cc6)CC[C@]5(C)C4CC[C@]23C)cn1 (stereo partly drawn) [Compound 35, N-((3S,10R,13S)-17-(4-methyl-1H-imidazol-1-yl)-10,13-dimethyl-2,3,4,7,8,9,10,11,12,13,14,15-dodecahydro-1H-cyclopenta[a]phenanthren-3-yl)-4-(methylsulfonyl)benzamide] | 651 | 96.85 | 527 |  |  |  | 259 |  | 4.0 |
| Cc1cn(C2=CCC3C4CC=C5C[C@@H](NC(=O)c6ccncc6)CC[C@]5(C)C4CC[C@]23C)cn1 (stereo partly drawn) [Compound 14, N-((3S,10R,13S)-10,13-dimethyl-17-(4-methyl-1H-imidazol-1-yl)-2,3,4,7,8,9,10,11,12,13,14,15-dodecahydro-1H-cyclopenta[a]phenanthren-3-yl)isonicotinamide] | 591 | 99.35 | 205 | 15.8 | significantly inhibited the growth of androgen-dependent organs | activity comparable to enzalutamide | 490 |  |  |
